Results as given in US20230272357A1, “METHODS OF GENOME EDITING INCLUDING CONTROLLED OPENING OF CHROMATIN” (Wisconsin Alumni Research Foundation, priority 2021, published 2023).
“Also recorded” adds a separate entry of the source.

Legend:
[1] = tested on: HIST1H2BJ-GFP reporter iPSC nuclei; experiment: Live in situ nuclear imaging of chromatin condensation (CellProfiler); type: cell-based, human; details: TSA 0, 3.13, 6.25, 12.5 ng/mL, FIG. 1C,D
Description: Antibodies and Staining: All cells were fixed for 15 minutes with 4% paraformaldehyde in PBS (Sigma-Aldrich, St. Louis, Mo.) and permeabilized with 0.5% Triton™-X (Sigma-Aldrich) for >4 hours at room temperature before staining. Hoechst (H1399; Thermo Fisher Scientific, Waltham, Mass.) was used at 5 μg/mL with 15 min incubation at room temperature to stain nuclei. Primary antibodies were applied overnight at 4° C. in a blocking buffer of 5% donkey serum (Sigma-Aldrich) at the following concentrations: H3K9Me3 (ab8898; Abcam) 1:500; H3K9Ac (39918; Active Motif) 1:100; H3K27Me3 (C36B11; Cell Signaling Technology) 1:200. […]
After streamlining the gene editing strategy, the effect of TSA treatment on the gene editing efficiency of iPSCs was examined The iPSCs were pre-treated with TSA (0, 3.13, 6.25, and 12.5 ng/mL) and their nuclei imaged. […] The images were then used as inputs for a CellProfiler software pipeline to output the chromatin condensation % of the nuclei (data not shown), defined as the ratio of total heterochromatin intensity to the total nuclear intensity. […]

[2] = tested on: HIST1H2BJ-GFP, AAVS1 (S8, S10), EMX1, VEGFA, TRAC (S2, S3) loci; experiment: Deep sequencing (NGS) of edited iPSCs at open and closed chromatin loci; type: cell-based, human
Description: Next Generation Sequencing of genomic DNA: DNA was isolated from iPSCs by adding 50 μL of DNA QuickExtract™/well (Epicentre) following treatment by Accutase™ and centrifugation. The DNA extract solution was incubated at 65° C. for 15 min, 68° C. for 15 min, and finally 98° C. for 10 min. Genomic PCR was performed according to the manufacturer's instructions using Q5 Hot Start polymerase (NEB). Sequencing indices were added with a second round of PCR using indexing primers (IDT), followed by a purification using AMPure XP magnetic bead purification kit (Beckman Coulter). Samples were pooled and sequenced on an Illumina® MiniSeq at a run length of 1×150 bp or 2×150 bp according to the manufacturer's instructions. Analysis was performed using CRISPR RGEN.
Multiple gRNA sequences targeting different sites of open (HIST1H2BJ and AAVS1) and closed chromatin (TRAC, VEGFA, EMX1) were selected to investigate if the observed TSA-induced increase in gene-editing efficiency at HIST1H2BJ-GFP locus is specific to the gRNA sequence or the chromatin state of the target locus. To gain a more detailed analysis of gene-edited events in iPSCs, deep sequencing was performed on edited cells obtained after TSA treatment. The genomic DNA was harvested on day 6 after Cas9 RNP delivery. PCR using primers flanking the gRNA target sites was then performed and prepared for next-generation sequencing (NGS) using the Illumina® MiniSeq™ system. […] Corroborating with this observation, we noted an increase in the local chromatin accessibility at the on-target sites upon TSA treatment (Data not shown). […] The highest frequency of indels was found three to four nucleotides upstream from the protospacer adjacent motif (PAM) sequence, consistent with reports of type II CRISPR systems (FIG. 2C,E). Furthermore, edited reads contained higher deletion events (approximately 50-80%) than insertion events (approximately 5-20%). Similar observations were reported in deep sequencing analysis of human cells edited by S. Pyogenes Cas9 (SpyCas9). The percentage of edited reads with Single Nucleotide Polymorphisms (SNPs) decreased upon chromatin decondensation via TSA treatment (FIG. 2F), while the relative distribution of SNPs around the cut site remained similar (data not shown). This is consistent with reports that indicate nucleosomes are enriched in SNPs.

[3] = edited iPSCs obtained after TSA treatment, all loci
[4] = seven loci, change upon TSA treatment

CC(/C=C/C(=O)NO)=C\[C@@H](C)C(=O)c1ccc(N(C)C)cc1 [TSA, Trichostatin A]
Chromatin condensation % (heterochromatin intensity to total nuclear intensity) [1]: decrease
Deletion events in edited reads [2, 3]: 50-80%
Insertion events in edited reads [2, 3]: 5-20%
% edited reads with insertions [2, 4]: no significant change; also recorded: did not undergo significant change
% edited reads with only SNPs [2, 4]: decreased
% editing efficiency by deep sequencing ([2]; seven open and closed loci, day 6, TSA vs 0 ng/mL): increased
